Common to all, as to type: cell-based, human
One assay concerns ovarian cancer tumoroids. In words: ex vivo 3D patient-derived tumour culture with 3D imaging, ovarian cancer samples. Particulars: for area size of small objects (smaller than 160 μm^2, immune cells): same ovarian tumour sample as FIG. 4, FIG. 5.
Assay [1] has as its system patient derived tumour cell aggregates. In words: Selection Factor (tumoroids' area decrease) across patient samples. Particulars: for immune reaction reducing the number of tumour cells (Selection Factor across samples): FIGS. 8 and 9, alone or in combination, immune system of a naïve patient sample only.
Assay [2] deals with Mesothelioma tumour sample. In words: ex vivo 3D patient-derived tumour culture with 3D imaging, mesothelioma sample. Particulars: FIG. 3.
The test system of a further assay is lung tumour sample. In words: ex vivo 3D patient-derived tumour culture with 3D imaging, lung tumour sample. Particulars: FIG. 6.
Another assay concerns IFN-γ. In words: IFN-γ production in treated patient-derived cultures. Particulars: FIG. 7; IFN-γ is secreted by activated T-cells.

Take `Nc1ncnc2c1ncn2[C@@H]1O[C@@H]2COP(=O)([S-])O[C@@H]3[C@H](O)[C@@H](COP([O-])(=S)O[C@H]2[C@H]1O)O[C@H]3n1cnc2c(N)ncnc21.[Na+].[Na+]` (stereo partly shown) [ADU-S100]: the “area size of small objects (smaller than 160 μm^2, immune cells)” value with ovarian cancer tumoroids is “area size increase of small objects”.

For the compound `O=C(c1cc(Cc2n[nH]c(=O)c3ccccc23)ccc1F)N1CCN(C(=O)C2CC2)CC1` [olaparib], the “immune reaction reducing the number of tumour cells (Selection Factor across samples)” value in assay [1] is “able to start an immune reaction that effectively reduced the number of tumour cells”.

Take ipilimumab: the “activating native immune cells to kill ovarian cancer tumoroids (total area of objects larger than 422 μm^2 / smaller than 160 μm^2)” value in the assay on ovarian cancer tumoroids (ovarian cancer samples of FIG. 1) was “showed effectiveness in activating immune cells”. Moreover, the “activating native immune cells to kill tumoroids” value in the assay with ovarian cancer tumoroids (ovarian cancer samples of FIG. 2) is “does not show effectiveness”. For the same compound, the “immune-mediated tumoroid killing effect” value in assay [2] is on record as “showing immune-mediated tumoroid killing effect”. The “killing effect in a lung cancer tumour sample” value with lung tumour sample is reported as “killing effect in a lung cancer tumour sample”. Also, in the assay with IFN-γ, the IFN-γ production result is listed as “increased”. Further, the “immune reaction reducing the number of tumour cells (Selection Factor across samples)” value in assay [1] is “able to start an immune reaction that effectively reduced the number of tumour cells”. Besides, in assay [1] (subset of patients that benefit from treatment), the “in-vitro Selection Factor” value is “below −30%”.

On to nivolumab, for which the “killing effect in a lung cancer tumour sample” value with lung tumour sample is on record as “killing effect in a lung cancer tumour sample”.

Consider pembrolizumab, for which the “killing effect, i.e. area size reduction of tumoroid clusters” value with ovarian cancer tumoroids (ovarian tumour sample, FIG. 4) is reported as “killing effect, i.e. area size reduction of tumoroid clusters”. Moreover, in the assay with ovarian cancer tumoroids, the “area size of small objects (smaller than 160 μm^2, immune cells)” value is recorded as “area size increase of small objects”. The “killing effect in a lung cancer tumour sample” value in the assay with lung tumour sample is given as “killing effect in a lung cancer tumour sample”.

The values are drawn from patent US20220390435A1, “COMPOSITIONS FOR PATIENT SPECIFIC IMMUNOTHERAPY” (VITROSCAN B.V., priority 2019, published 2022).
